From ChEMBL document CHEMBL1201862, “PubChem BioAssay data set” (2004) come the findings set out here.

What is called AC50 is the midpoint of the concentration-response curve, whichever way the signal moves. The CC50 is the concentration that lowers cell viability or growth by half.

Active and inactive are the calls of the source.

Assay [1] is described as follows: cytotoxicity toward DRD oncogenic fibroblasts, dose response, cell-based, non-viral oncogenic, luminescence (AID 1934). Particulars: Homo sapiens. It is filed as functional.
The test system of assay [2] is BJ. The assay is described as follows: cytotoxicity toward BJ-TERT-LT-ST fibroblasts, dose response, cell-based, RAS-independent, luminescence (AID 1935).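 Also: BJ fibroblasts immortalized with TERT plus LT and ST oncogenes.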 It is filed as functional. Particulars: Homo sapiens.
The target of another assay is T1, Aminopeptidase N (Plasmodium falciparum FcB1/Columbia, UniProt O96935).
T1 sequence (O96935 whole entry): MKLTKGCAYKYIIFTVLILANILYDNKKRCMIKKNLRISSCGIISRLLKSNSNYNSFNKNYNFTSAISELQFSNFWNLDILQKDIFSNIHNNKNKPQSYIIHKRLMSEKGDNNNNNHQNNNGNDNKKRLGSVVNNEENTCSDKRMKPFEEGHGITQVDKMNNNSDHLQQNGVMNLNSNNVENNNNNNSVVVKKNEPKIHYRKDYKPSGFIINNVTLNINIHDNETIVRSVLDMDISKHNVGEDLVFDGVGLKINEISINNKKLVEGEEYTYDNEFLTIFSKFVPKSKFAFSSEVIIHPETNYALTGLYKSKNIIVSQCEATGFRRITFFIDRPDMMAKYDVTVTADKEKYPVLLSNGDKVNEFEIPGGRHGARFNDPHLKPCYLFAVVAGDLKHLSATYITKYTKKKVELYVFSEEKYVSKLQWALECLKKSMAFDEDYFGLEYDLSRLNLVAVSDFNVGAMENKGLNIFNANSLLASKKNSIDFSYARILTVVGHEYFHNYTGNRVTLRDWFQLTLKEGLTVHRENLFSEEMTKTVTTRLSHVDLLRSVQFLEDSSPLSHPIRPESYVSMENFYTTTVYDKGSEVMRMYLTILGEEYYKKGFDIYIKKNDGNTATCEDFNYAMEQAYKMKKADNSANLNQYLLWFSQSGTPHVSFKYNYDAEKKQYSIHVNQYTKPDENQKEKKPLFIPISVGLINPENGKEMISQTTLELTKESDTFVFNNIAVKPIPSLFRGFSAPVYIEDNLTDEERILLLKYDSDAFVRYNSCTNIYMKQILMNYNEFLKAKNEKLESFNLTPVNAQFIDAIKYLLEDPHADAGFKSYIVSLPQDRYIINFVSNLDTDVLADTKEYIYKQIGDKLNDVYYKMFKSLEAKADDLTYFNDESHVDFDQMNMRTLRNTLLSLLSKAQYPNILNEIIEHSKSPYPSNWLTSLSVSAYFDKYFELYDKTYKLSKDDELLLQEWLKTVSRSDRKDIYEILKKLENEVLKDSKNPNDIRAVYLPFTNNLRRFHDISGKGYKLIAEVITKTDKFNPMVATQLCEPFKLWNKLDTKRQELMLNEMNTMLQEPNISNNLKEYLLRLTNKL
The assay can be described thus: P. falciparum M1AAP inhibitors, biochemical, fluorogenic H-Leu-NHMec substrate, 1536-well (AID 1445). Also noted: species or system Plasmodium falciparum 3D7, 3D7.

In assay [3] the test system is BJ. The assay can be described thus: cytotoxicity toward Ras-transformed BJeLR fibroblasts, dose response, cell-based, alamar blue fluorescence, cherrypicked samples (AID 2631).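 Also: confirmatory dose-response assay in RAS-dependent BJ fibroblasts engineered with TERT, LT and ST, with cytotoxicity read by fluorescence.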 The class given is functional. Particulars: Homo sapiens. On the technique in general: Alamar Blue is a resazurin reagent that responds to reducing activity.
Assay [4] is described as follows: NIH-3T3 fibroblast cytotoxicity, dose response, cytotoxicity control, cell-based, fluorescence, Alamar Blue, secondary assay (AID 2327).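 Also: NIH-3T3 mouse fibroblasts cultured with fluconazole at 8 µg/mL.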 The class given is functional.
Assay [5] has as its target T2, DNA repair protein RAD52 homolog (Homo sapiens, UniProt P43351).
T2 sequence (P43351 whole entry): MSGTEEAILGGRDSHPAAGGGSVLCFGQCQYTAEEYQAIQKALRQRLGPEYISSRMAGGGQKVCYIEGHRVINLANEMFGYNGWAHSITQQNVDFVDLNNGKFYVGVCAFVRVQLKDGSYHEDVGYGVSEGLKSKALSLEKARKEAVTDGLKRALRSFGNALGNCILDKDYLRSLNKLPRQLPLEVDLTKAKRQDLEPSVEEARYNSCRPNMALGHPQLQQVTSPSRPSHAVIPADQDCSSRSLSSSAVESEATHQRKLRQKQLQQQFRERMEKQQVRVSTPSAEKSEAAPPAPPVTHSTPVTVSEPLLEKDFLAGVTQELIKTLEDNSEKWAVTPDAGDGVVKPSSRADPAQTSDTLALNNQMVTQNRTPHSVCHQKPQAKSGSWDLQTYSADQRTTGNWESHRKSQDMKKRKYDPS
It is filed as functional, biochemical.

The subject of assay [6] is BJ. The assay is described as follows: cells. It is filed as functional, cell-based. Conditions: Homo sapiens.
A short description of assay [7]: C. albicans growth with fluconazole, confirmation, fluorescence, retest (AID 2467). It is filed as functional, cell-based.
Assay [8] has as its system BJ. The assay can be described thus: cytotoxicity toward BJ-TERT fibroblasts, dose response, cell-based, RAS-independent, luminescence (AID 1933). It is filed as functional. Particulars: Homo sapiens.
Assay [9] has as its system Vero. The assay can be described thus: cells. The class given is functional. Conditions: Chlorocebus sabaeus.
Assay [10] has as its system Vero. The assay is described as follows: cells. Particulars: Chlorocebus sabaeus. It is filed as functional, cell-based.
Assay [11] in a line: growth suppression of beta-catenin-knockout colon cells, dose response, cell-based, HCT116, human colon tumor (AID 1045).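 Also: HCT116 colon tumor cells with beta catenin knocked out; cells exposed to compound for 60 hours.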 It is filed as functional.
The nature of assay [12]: growth suppression of PTEN-null colon cells, dose response, cell-based, HCT116 PTEN knockout (AID 1047).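 Also: HCT116 colon tumor cells with PTEN knocked out; cells exposed to compound for 60 hours before readout; potency for loss of cell viability measured by luminescence.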 It is filed as functional.
Assay [13] concerns the target Ras and Rab interactor 1/Tyrosine-protein kinase ABL1 (Homo sapiens, UniProt P00519+Q13671). It is filed as functional.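 Also: biochemical TR-FRET dose-response test measuring inhibition of binding between Rin1 and Abl proteins.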
Assay [14] is described as follows: CRF-BP/CRF-R2 complex antagonists, dose response, cell-based, uHTS hits, 384-well (AID 651639). The class given is functional, Homo sapiens. Conditions: read-out: IC50_Mean.
For assay [15], the target named is T3, Corticotropin-releasing factor receptor 2/Corticotropin-releasing factor-binding protein (Homo sapiens, UniProt P24387+Q13324).
T3 sequence (Q13324 whole entry): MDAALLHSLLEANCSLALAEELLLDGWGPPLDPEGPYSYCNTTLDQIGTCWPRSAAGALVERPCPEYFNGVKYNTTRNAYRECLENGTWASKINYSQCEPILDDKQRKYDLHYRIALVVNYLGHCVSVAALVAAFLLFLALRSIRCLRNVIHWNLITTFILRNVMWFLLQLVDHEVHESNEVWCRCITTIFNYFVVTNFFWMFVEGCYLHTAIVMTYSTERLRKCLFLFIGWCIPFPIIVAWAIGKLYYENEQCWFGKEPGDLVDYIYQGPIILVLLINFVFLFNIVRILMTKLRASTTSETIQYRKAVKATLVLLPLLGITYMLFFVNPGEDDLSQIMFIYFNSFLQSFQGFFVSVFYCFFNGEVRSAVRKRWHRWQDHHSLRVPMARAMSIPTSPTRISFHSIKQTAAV
T3 sequence (P24387 whole entry): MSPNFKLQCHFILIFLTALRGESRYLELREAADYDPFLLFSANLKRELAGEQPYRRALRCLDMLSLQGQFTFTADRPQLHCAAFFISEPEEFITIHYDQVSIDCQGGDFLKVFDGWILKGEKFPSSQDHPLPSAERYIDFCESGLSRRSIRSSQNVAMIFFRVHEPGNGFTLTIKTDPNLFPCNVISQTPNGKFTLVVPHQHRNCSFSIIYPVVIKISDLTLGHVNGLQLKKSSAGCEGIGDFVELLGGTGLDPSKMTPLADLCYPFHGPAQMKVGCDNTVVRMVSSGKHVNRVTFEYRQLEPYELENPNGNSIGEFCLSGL
The assay is described as follows: activators of CRF receptor 2 with binding protein – uHTS hits, confirmation (AID 602473). The class given is functional. Conditions: read-out: EC50_Mean.

In assay [16] the target is T3, Corticotropin-releasing factor receptor 2/Corticotropin-releasing factor-binding protein. The assay can be described thus: Dose Response confirmation of uHTS hits for small molecule antagonists of the CRF-binding protein and CRF-R2 receptor complex. The class given is functional. Conditions: read-out: IC50_Mean.
Assay [17] has as its target T4, Adenosylmethionine-8-amino-7-oxononanoate aminotransferase (Mycobacterium tuberculosis, UniProt P9WQ81).
T4 sequence (P9WQ81 whole entry): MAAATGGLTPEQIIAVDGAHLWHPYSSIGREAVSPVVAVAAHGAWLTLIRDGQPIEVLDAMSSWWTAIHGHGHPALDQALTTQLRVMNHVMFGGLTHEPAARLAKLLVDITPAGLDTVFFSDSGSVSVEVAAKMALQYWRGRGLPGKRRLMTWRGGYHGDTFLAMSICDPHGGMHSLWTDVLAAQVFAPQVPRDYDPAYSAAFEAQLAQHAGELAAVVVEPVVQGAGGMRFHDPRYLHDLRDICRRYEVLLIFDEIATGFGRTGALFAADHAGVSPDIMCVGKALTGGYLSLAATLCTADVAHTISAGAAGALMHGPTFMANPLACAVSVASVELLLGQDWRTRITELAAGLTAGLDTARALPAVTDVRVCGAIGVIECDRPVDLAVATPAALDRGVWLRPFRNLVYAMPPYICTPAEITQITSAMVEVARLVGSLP
The assay is described as follows: Mycobacterium tuberculosis BioA enzyme inhibitor Measured in Biochemical System Using Plate Reader - 2163-02_Inhibitor_Dose_CherryPick_Activity. The class given is functional, Mycobacterium tuberculosis UT205.

Assay [18] can be described thus: Luminescence Cell-Based Dose Retest to Confirm Inhibitors of Cancer Stem Cells. [Related pubchem assays (depositor defined):AID2717, AID2721]. The class given is functional. Conditions: Homo sapiens.
In another assay the target is Protein Wnt-3a (Mus musculus, UniProt P27467). The assay can be described thus: Wnt3a-driven reporter signaling inhibition, dose response, selectivity assay for Gli-SUFU antagonist project, Wnt-LIGHT cells, luminescence (AID 651570).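 Also: Wnt-LIGHT reporter cells stimulated with conditioned medium from Wnt3a-producing cells.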 The class given is functional. Particulars: read-out: IC50_Mean.
The next assay concerns the target Nonstructural protein 1 (Influenza A virus, UniProt Q194T2). The class given is functional, Influenza A virus (A/California/07/2009(H1N1)).
Assay [19] is described as follows: control 3'UTR Renilla luciferase suppression, dose response, counter-screen for Shn3 inhibitor project, cell-based, Clone20-Shn3RL, cherry-picked (AID 624133). The class given is functional. (In general: A counterscreen serves to expose hits that act by an unwanted route or on another target.)
The next assay has as its system INS1. The assay can be described thus: beta cell apoptosis inhibitors, cytokine rescue, dose response, luminescence, retest (AID 449756).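 Also: cell death triggered by IL-1 beta plus TNF-alpha plus IFN-gamma mixture; protective hits raise ATP signal compared with cytokine alone wells.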 The class given is functional, cell-based. Particulars: Rattus norvegicus.
A short description of assay [20]: Shn3 3'UTR reporter inhibitors, dose response, cell-based, Clone20 osteoblasts, firefly luciferase, cherry-picked (AID 624132).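 Also: firefly luciferase luminescence from reporter carrying the Shn3 3'UTR in osteoblasts.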 The class given is functional.
A short description of assay [21]: HepG2 cell cytotoxicity, dose response, cytotoxicity control for Shn3 inhibitor project, CellTiter-Glo, cherry-picked (AID 624134). It is filed as functional, cell-based. For orientation: In ATP-based viability assays light output follows the ATP content of the culture.

Sequence of Protein Wnt-3a (P27467 whole entry): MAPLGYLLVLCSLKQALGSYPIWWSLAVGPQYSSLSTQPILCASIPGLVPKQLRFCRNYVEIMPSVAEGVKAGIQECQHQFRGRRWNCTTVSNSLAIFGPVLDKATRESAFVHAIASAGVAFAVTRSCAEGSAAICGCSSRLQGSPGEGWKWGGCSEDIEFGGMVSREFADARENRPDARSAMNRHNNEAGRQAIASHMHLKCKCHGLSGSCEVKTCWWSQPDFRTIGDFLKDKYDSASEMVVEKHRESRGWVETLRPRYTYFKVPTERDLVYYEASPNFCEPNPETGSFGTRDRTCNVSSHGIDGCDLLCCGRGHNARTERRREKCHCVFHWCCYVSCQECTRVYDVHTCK
Sequence of Ras and Rab interactor 1/Tyrosine-protein kinase ABL1 (P00519 whole entry): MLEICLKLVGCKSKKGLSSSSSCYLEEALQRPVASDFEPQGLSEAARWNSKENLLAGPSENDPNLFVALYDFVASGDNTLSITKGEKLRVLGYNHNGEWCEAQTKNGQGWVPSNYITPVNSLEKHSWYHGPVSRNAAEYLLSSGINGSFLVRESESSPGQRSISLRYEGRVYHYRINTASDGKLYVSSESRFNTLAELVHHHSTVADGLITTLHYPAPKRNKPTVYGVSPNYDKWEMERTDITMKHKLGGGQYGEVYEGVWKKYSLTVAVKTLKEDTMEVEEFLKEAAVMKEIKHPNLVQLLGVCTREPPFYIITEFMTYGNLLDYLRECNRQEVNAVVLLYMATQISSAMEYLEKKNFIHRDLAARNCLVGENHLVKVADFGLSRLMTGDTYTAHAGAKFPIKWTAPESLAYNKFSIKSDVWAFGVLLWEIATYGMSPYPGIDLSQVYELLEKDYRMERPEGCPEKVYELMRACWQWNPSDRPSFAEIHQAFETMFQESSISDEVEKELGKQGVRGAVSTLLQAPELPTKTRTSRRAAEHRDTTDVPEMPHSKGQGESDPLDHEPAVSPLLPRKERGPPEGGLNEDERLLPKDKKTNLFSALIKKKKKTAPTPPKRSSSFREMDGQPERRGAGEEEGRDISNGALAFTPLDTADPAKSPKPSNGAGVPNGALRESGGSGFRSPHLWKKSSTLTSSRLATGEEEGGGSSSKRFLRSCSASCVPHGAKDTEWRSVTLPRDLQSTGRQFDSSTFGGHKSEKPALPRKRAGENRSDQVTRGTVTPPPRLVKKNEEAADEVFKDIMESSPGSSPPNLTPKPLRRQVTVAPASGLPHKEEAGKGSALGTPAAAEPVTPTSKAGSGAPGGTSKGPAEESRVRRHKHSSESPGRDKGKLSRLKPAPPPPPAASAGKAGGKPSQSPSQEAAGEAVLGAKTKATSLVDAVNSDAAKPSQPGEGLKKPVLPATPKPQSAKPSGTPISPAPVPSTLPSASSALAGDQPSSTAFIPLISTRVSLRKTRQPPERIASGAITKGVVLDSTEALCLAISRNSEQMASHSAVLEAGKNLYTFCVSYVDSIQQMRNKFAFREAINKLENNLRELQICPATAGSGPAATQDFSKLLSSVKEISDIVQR
Sequence of Ras and Rab interactor 1/Tyrosine-protein kinase ABL1 (Q13671 whole entry): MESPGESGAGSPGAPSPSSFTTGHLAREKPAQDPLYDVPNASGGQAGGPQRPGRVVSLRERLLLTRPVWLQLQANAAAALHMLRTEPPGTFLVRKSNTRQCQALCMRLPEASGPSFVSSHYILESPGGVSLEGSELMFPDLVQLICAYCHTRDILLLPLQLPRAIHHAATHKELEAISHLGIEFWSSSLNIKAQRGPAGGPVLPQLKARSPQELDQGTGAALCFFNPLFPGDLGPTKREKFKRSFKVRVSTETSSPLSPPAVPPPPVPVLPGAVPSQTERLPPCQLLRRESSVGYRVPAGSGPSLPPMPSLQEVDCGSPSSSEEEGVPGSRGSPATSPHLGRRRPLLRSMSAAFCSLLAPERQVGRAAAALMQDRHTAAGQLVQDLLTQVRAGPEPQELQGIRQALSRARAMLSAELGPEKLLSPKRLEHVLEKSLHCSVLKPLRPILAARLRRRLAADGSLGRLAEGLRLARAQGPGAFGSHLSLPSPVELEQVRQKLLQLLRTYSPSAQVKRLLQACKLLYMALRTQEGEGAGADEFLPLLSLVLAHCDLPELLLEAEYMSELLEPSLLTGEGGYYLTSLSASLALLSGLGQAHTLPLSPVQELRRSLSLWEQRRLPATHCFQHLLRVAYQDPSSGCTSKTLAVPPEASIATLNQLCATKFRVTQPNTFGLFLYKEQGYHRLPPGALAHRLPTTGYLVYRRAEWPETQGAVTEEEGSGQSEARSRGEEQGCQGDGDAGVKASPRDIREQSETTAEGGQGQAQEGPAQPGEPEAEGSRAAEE
Sequence of Nonstructural protein 1 (Q194T2 whole entry): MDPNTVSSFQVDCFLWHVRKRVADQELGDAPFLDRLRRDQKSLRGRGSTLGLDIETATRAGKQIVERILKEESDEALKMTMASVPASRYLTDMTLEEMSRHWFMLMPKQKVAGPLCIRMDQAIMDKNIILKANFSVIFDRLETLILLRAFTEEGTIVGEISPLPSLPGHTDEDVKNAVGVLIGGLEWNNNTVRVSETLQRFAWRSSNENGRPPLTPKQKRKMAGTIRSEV

With `CCCCCCCCCC[n+]1cccc2c3ccccc3ccc21`, the EC50 in assay [1] was 8.72 µM (active); with BJ [2], 10.2 µM (active); with BJ [3], 5.93 µM (active); in assay [4], > 150 µM (inactive); in the assay with BJ [6], 11.8 µM (active); in assay [7] it was 0.723 µM (active). Also, in the assay with BJ [8], the EC50 is 2.78 µM (active). In addition, the IC50 on Aminopeptidase N is 89.6 µM (active). Besides, the concentration at half-maximal activity (AC50) in [5] was 6.58 µM (active).
`CCc1ccc(C(=O)/C=C/c2ccc([N+](=O)[O-])o2)cc1`: in the assay on Vero [9], the CC50 was 12.3 µM (active). Further, the IC50 in the assay on Vero [10] is > 25 µM (active). Further, the EC50 in assay [11] is 1.69 µM (active); in [1], 5.5 µM (inconclusive); in the assay with BJ [2], 4.02 µM (inconclusive); in the assay on BJ [3], 0.57 µM (active); in assay [12], 2.25 µM (active); with BJ [6] it was > 150 µM (inconclusive). Also, the EC50 in the assay on BJ [8] is 5.72 µM (inconclusive).
Take `CC12CCC(=O)N1C(C(=O)Nc1nnc(SCc3ccccc3F)s1)CS2` (configuration not stated): the IC50 in assay [13] is 4.08 µM (active).
As to `COc1ccc(NC(=O)CN(C)C(=O)Cc2ccc(S(=O)(=O)N3CCOCC3)s2)cc1`, the IC50 in assay [13] was 2.03 µM (active).
For `CN(C)c1ccc(C=C2C(=O)OC3(CCCC3)OC2=O)cc1`, the values for the IC50 in [14] and in assay [16] were 2.36 µM (active) and 2.41 µM (active), respectively. The EC50 in assay [15] is 44.2 µM (active).
Turning to `Cc1nc2c(C(=O)N3CCN(c4ccccn4)CC3)cnn2c(C)c1Cc1cccc(Cl)c1`, the AC50 in assay [17] was 3.39 µM (active).
Consider `O=C(N[C@H]1C/C=C\C[C@@H](CC(=O)N(CCO)Cc2ccccc2)C(=O)NC[C@H](c2ccccc2)OC1=O)OCC1c2ccccc2-c2ccccc21`, for which the AC50 in assay [18] was 2.24 µM (active). The IC50 at Protein Wnt-3a is 7.16 µM (active).
Take `CCc1nn(CCCC(=O)N(C)Cc2ccccc2)c(=O)c2cc3occc3n12`: the AC50 in [17] was 4.73 µM (active).
Turning to `CCOc1ccc(N/N=C2\C(=O)Nn3c2nc2c(c3=O)CCCC2)cc1`, the IC50 in assay [14] was > 20 µM (inactive); in assay [16], 4.73 µM (active); on Nonstructural protein 1, > 100 µM (active). Further, the EC50 in [15] was > 53 µM (inactive).
On to `CCn1/c(=N\C(=O)CCS(=O)(=O)c2ccccc2)sc2cccc(OC)c21`, for which the AC50 was 3.05 µM (active) in [19], 5.08 µM (active) with INS1, 1.28 µM (active) in [20] and > 70 µM (inactive) in assay [21]. The IC50 at Protein Wnt-3a was 0.803 µM (active).
In the case of `CN1c2ccc(-c3cccc(F)c3)cc2[C@H]2[C@H](CCN2C(=O)c2ccncc2)[C@H]1CO`, the AC50 in assay [17] is 0.816 µM (active).
